Like-named read-outs stand apart in the source and are kept apart here.
Experiments:
[1] = target: GDP-bound protein (aa 1-169), containing both G12C and C118A amino acid substitutions (Homo sapiens, UniProt P01116, C118A/G12C); assay: Coupled Nucleotide Exchange Assay (SOS-mediated nucleotide exchange, AlphaScreen); type: biochemical; conditions: 2 hours compound pre-incubation
Procedure, shortened: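 His-tagged GDP-bound […] (aa 1-169, G12C/C118A) pre-incubated 2 h with compound titration in 25 mM HEPES pH 7.4, 10 mM MgCl2, 0.01% Triton X-100.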

[2] = system: Phosphorylation of ERK½ in MIA PaCa-2 cells; assay: Phospho-ERK½ MSD Assay in MIA PaCa-2 cells; type: cell-based; conditions: 4 hours compound treatment, 10 ng/mL EGF for 10 min, read-out: p-ERK IC50 (MIA PaCa-2)
Protocol: (§1) Phospho-ERK½ MSD Assay: MIA PaCa-2 (ATCC® CRL-1420™) and A549 (ATCC® CCL-185™) cells were cultured in RPMI 1640 Medium (ThermoFisher Scientific 11875093) containing 10% fetal bovine serum (ThermoFisher Scientific 16000044) and 1× penicillin-streptomycin-glutamine (ThermoFisher Scientific 10378016). Sixteen hours prior to compound treatment, MIA PaCa-2 or A549 cells were seeded in 96-well cell culture plates at a density of 25,000 cells/well and incubated at 37° C., 5% CO2. A compound dose-response titration was diluted in growth media, added to appropriate wells of a cell culture plate, and then incubated at 37° C., 5% CO2 for 4 hours. Following compound treatment, cells were stimulated with 10 ng/mL EGF (Roche 11376454001) for 10 min, washed with ice-cold Dulbecco's phosphate-buffered saline, no Ca^2+ or Mg^2+ (ThermoFisher Scientific 14190144), and then lysed in RIPA buffer (50 mM Tris-HCl pH 7.5, 1% Igepal, 0.5% sodium deoxycholate, 150 mM NaCl, and 0.5% sodium dodecyl sulfate) containing protease inhibitors (Roche 4693132001) and phosphatase inhibitors (Roche 4906837001). Cell lysates were stored frozen at −80° C. overnight. Phosphorylation of ERK½ in compound-treated lysates was assayed using Phospho-ERK½ Whole Cell Lysate kits (Meso Scale Discovery K151DWD) according to the manufacturer's protocol. Assay plates were read on a Meso Scale Discovery Sector Imager 6000, and data were analyzed using a 4-parameter logistic model to calculate IC50 values.

[3] = system: Phosphorylation of ERK½ in A549 cells; assay: Phospho-ERK½ MSD Assay in A549 cells; type: cell-based; conditions: 4 hours compound treatment, 10 ng/mL EGF for 10 min, read-out: p-ERK IC50 (A549)
Protocol: as §1

[4] = Homo sapiens, MIA PaCa-2, MIA PaCa-2 cells

Sequence of GDP-bound protein (aa 1-169), containing both G12C and C118A amino acid substitutions (P01116 1-169 isoform P01116-2 G12C/C118A): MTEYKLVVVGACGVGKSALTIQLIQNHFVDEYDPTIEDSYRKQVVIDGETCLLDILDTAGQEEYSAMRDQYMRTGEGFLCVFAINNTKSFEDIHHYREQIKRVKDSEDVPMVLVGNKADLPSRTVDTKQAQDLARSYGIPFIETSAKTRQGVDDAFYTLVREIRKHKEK

C=CC(=O)N1CCN(c2snc3c(F)c(-c4cc(O)cc5ccccc45)c(Cl)cc23)C(C(=O)O)C1 (stereo not drawn) [Example 22, 1-(5-chloro-7-fluoro-6-(3-hydroxy-1-naphthalenyl)-2,1-benzothiazol-3-yl)-4-(2-propenoyl)-2-piperazinecarboxylic acid]
Coupled exchange IC50 [1]: 0.927 µM | IC50 [2, 4]: 56.1 µM | IC50 ([3]; Homo sapiens, A549, A549 cells): > 100 µM

C=CC(=O)N1CCN(c2snc3c(F)c(-c4nc(N)cc5ccccc45)c(Cl)cc23)CC1 [Example 25, 1-(4-(6-(3-Amino-1-isoquinolinyl)-5-chloro-7-fluoro-2,1-benzothiazol-3-yl)-1-piperazinyl)-2-propen-1-one]
Coupled exchange IC50 [1]: 0.251 µM | IC50 [2, 4]: 0.786 µM | IC50 ([3]; Homo sapiens, A549, A549 cells): > 100 µM

C=CC(=O)N1CC[C@@H]2[C@H]1CN2c1snc2c(F)c(-c3cc(O)cc4ccccc34)c(Cl)cc12 [Example 5-5, 1-((1R,5R)-6-(5-chloro-7-fluoro-6-(3-hydroxy-1-naphthalenyl)-2,1-benzothiazol-3-yl)-2,6-diazabicyclo[3.2.0]heptan-2-yl)-2-propen-1-one]
Coupled exchange IC50 [1]: 0.341 µM | IC50 [2, 4]: 2.53 µM | IC50 ([3]; Homo sapiens, A549, A549 cells): > 100 µM

C=CC(=O)N1CCN(c2snc3c(F)c(-c4cc(N)nc5ccccc45)c(Cl)cc23)CC1 [Example 26, 1-(4-(6-(2-amino-4-quinolinyl)-5-chloro-7-fluoro-2,1-benzothiazol-3-yl)-1-piperazinyl)-2-propen-1-one]
Coupled exchange IC50 [1]: 3.90 µM | IC50 [2, 4]: 30.3 µM | IC50 ([3]; Homo sapiens, A549, A549 cells): > 100 µM

C=CC(=O)N1CCN(c2nnc(-c3c(C)cccc3C)c3cc(-c4c(O)cccc4F)c(Cl)cc23)CC1 [Example 10-7, 1-(4-(7-Chloro-4-(2,6-dimethylphenyl)-6-(2-fluoro-6-hydroxyphenyl)-1-phthalazinyl)-1-piperazinyl)-2-propen-1-one]
Coupled exchange IC50 [1]: 0.533 µM | IC50 [2, 4]: 9.2 µM | IC50 ([3]; Homo sapiens, A549, A549 cells): > 100 µM

C=CC(=O)N1CCN(c2nnc(-c3ccccc3CC)c3cc(-c4c(O)cccc4F)c(Cl)cc23)CC1 [Example 10-5, 1-(4-(7-chloro-4-(2-ethylphenyl)-6-(2-fluoro-6-hydroxyphenyl)-1-phthalazinyl)-1-piperazinyl)-2-propen-1-one]
Coupled exchange IC50 [1]: 0.297 µM | IC50 [2, 4]: 3.41 µM | IC50 ([3]; Homo sapiens, A549, A549 cells): > 100 µM

C=CC(=O)N1CCN(c2snc3cc(-c4cc(OC)cc5ccccc45)c(Cl)cc23)CC1 [Example 1-4, 1-(4-(5-chloro-6-(3-methoxy-1-naphthalenyl)-2,1-benzothiazol-3-yl)-1-piperazinyl)-2-propen-1-one]
Coupled exchange IC50 [1]: >10 µM | IC50 [2, 4]: > 100 µM | IC50 ([3]; Homo sapiens, A549, A549 cells): > 100 µM

CN(C)C/C=C/C(=O)N1CCN(c2snc3c(F)c(-c4cc(O)cc5ccccc45)c(Cl)cc23)CC1 [Example 17-2, (2E)-1-(4-(5-chloro-7-fluoro-6-(3-hydroxy-1-naphthalenyl)-2,1-benzothiazol-3-yl)-1-piperazinyl)-4-(dimethylamino)-2-buten-1-one]
Coupled exchange IC50 [1]: 1.02 µM | IC50 [2, 4]: 2.6 µM | IC50 ([3]; Homo sapiens, A549, A549 cells): 49.1 µM

C=CC(=O)N1CCN(c2nnc(-c3cccc4[nH]ccc34)c3cc(-c4c(O)cccc4F)c(Cl)cc23)CC1 [Example 10-9, 1-(4-(7-chloro-6-(2-fluoro-6-hydroxyphenyl)-4-(1H-indol-4-yl)-1-phthalazinyl)-1-piperazinyl)-2-propen-1-one]
Coupled exchange IC50 [1]: 1.68 µM | IC50 [2, 4]: 33.6 µM | IC50 ([3]; Homo sapiens, A549, A549 cells): > 100 µM

C=CC(=O)N1CCN(c2nnc(-c3ccccc3C(C)C)c3cc(-c4c(O)cccc4F)c(Cl)cc23)CC1 [Example 10-4, 1-(4-(7-chloro-6-(2-fluoro-6-hydroxyphenyl)-4-(2-(2-propanyl)phenyl)-1-phthalazinyl)-1-piperazinyl)-2-propen-1-one]
Coupled exchange IC50 [1]: 0.235 µM | IC50 [2, 4]: 3.47 µM | IC50 ([3]; Homo sapiens, A549, A549 cells): > 100 µM

C=CC(=O)N1CCN(c2snc3c(F)c(-c4cc(O)cc5ccccc45)c(Cl)cc23)CC1 (single isomer, unassigned) [Example 3-1-1, 1-(4-(5-chloro-7-fluoro-6-(3-hydroxy-1-naphthalenyl)-2,1-benzothiazol-3-yl)-1-piperazinyl)-2-propen-1-one]
Coupled exchange IC50 [1]: 3.00 µM | IC50 ([2]; MIA PaCa-2 cells): > 100 µM | IC50 ([3]; A549 cells): > 100 µM

C=CC(=O)N1CCN(c2nc(=O)n(-c3ccccc3C(C)C)c3cc(-c4c(C)ccc5[nH]ncc45)c(Cl)cc23)CC1 (single isomer, unassigned) [Example 11-1-1, 6-chloro-7-(5-methyl-1H-indazol-4-yl)-1-(2-(2-propanyl)phenyl)-4-(4-(2-propenoyl)-1-piperazinyl)-2(1H)-quinazolinone]
Coupled exchange IC50 [1]: 0.231 µM | IC50 ([2]; MIA PaCa-2 cells): 0.247 µM | IC50 ([3]; Homo sapiens, A549, A549 cells): 42.9 µM

C=CC(=O)N1CCN(c2snc3c(F)c(-c4cc(O)cc5ccccc45)c(Cl)cc23)C(CO)C1 (stereo in doubt) [Example 1-7, 1-((3R)-4-(5-chloro-7-fluoro-6-(3-hydroxy-1-naphthalenyl)-2,1-benzothiazol-3-yl)-3-(hydroxymethyl)-1-piperazinyl)-2-propen-1-one]
Coupled exchange IC50 [1]: 0.209 µM | IC50 [2, 4]: 1.86 µM | IC50 ([3]; Homo sapiens, A549, A549 cells): > 100 µM

C=CC(=O)N1CCN(c2nnc(Nc3ccccc3)c3cc(-c4c(O)cccc4F)c(Cl)cc23)CC1 [Example 13, 1-(4-(4-Anilino-7-chloro-6-(2-fluoro-6-hydroxyphenyl)-1-phthalazinyl)-1-piperazinyl)-2-propen-1-one]
Coupled exchange IC50 [1]: 5.20 µM | IC50 [2, 4]: > 100 µM | IC50 ([3]; Homo sapiens, A549, A549 cells): > 100 µM

C=CC(=O)N1CCN(c2nc(=O)n(-c3c(CC)cccc3CC)c3nc(-n4nnc5ccccc54)c(Cl)cc23)[C@@H](C)C1 [Example 9-12, 7-(1H-benzotriazol-1-yl)-6-chloro-1-(2,6-diethylphenyl)-4-((2S)-2-methyl-4-(2-propenoyl)-1-piperazinyl)pyrido[2,3-d]pyrimidin-2(1H)-one]
Coupled exchange IC50 [1]: 1.32 µM | IC50 [2, 4]: 1.29 µM | IC50 ([3]; Homo sapiens, A549, A549 cells): > 100 µM

C=CC(=O)N1CCN(c2snc3c(F)c(-c4cc(O)cc5ccccc45)c(Cl)cc23)C[C@@H]1CO (racemic) [Example 1-16, 1-(4-(5-chloro-7-fluoro-6-(3-hydroxy-1-naphthalenyl)-2,1-benzothiazol-3-yl)-2-(hydroxmethyl)-1-piperazinyl)-2-propen-1-one]
Coupled exchange IC50 [1]: 0.492 µM | IC50 [2, 4]: 4.83 µM | IC50 ([3]; Homo sapiens, A549, A549 cells): > 100 µM

C=CC(=O)N1CCN(c2snc3c(F)c(-c4c(O)cccc4F)c(Cl)cc23)CC1 [Example 3-6, 1-(4-(5-chloro-7-fluoro-6-(2-fluoro-6-hydroxyphenyl)-2,1-benzothiazol-3-yl)-1-piperazinyl)-2-propen-1-one]
Coupled exchange IC50 [1]: 1.05 µM | IC50 [2, 4]: 11.8 µM | IC50 ([3]; Homo sapiens, A549, A549 cells): > 100 µM

C=CC(=O)N1CCN(c2snc3c(F)c(-c4cc(O)cc(Cl)c4Cl)c(Cl)cc23)CC1 [Example 3-22, 1-(4-(5-chloro-6-(2,3-dichloro-5-hydroxyphenyl)-7-fluoro-2,1-benzothiazol-3-yl)-1-piperazinyl)-2-propen-1-one]
Coupled exchange IC50 [1]: 0.249 µM | IC50 [2, 4]: 1.12 µM | IC50 ([3]; Homo sapiens, A549, A549 cells): > 33.3 µM

C=CC(=O)N1CCN(c2snc3c(F)c(-c4cc(N)ccc4C)c(Cl)cc23)CC1 [Example 3-12, 1-(4-(6-(5-amino-2-methylphenyl)-5-chloro-7-fluoro-2,1-benzothiazol-3-yl)-1-piperazinyl)-2-propen-1-one]
Coupled exchange IC50 [1]: 2.56 µM | IC50 [2, 4]: 7.66 µM | IC50 ([3]; Homo sapiens, A549, A549 cells): > 100 µM

C=CC(=O)N1CCN(c2snc3c(F)c(-c4cccc5ccccc45)c(Cl)cc23)CC1 [Example 3-23, 1-(4-(5-chloro-7-fluoro-6-(naphthalen-1-yl)benzo[c]isothiazol-3-yl)piperazin-1-yl)prop-2-en-1-one]
Coupled exchange IC50 [1]: 4.65 µM | IC50 [2, 4]: 13.6 µM | IC50 ([3]; Homo sapiens, A549, A549 cells): > 100 µM

C=CC(=O)N1CCN(c2snc3c(F)c(-c4cc(O)cc5ccccc45)c(Cl)cc23)[C@H](C)C1 [Example 1-21, 1-((3R)-4-(5-chloro-7-fluoro-6-(3-hydroxy-1-naphthalenyl)-2,1-benzothiazol-3-yl)-3-methyl-1-piperazinyl)-2-propen-1-one]
Coupled exchange IC50 [1]: 1.30 µM | IC50 [2, 4]: 4.89 µM | IC50 ([3]; Homo sapiens, A549, A549 cells): > 100 µM
